Assay results from patent US7528164B2, “Substituted 4-aryl-4h-pyrrolo[2,3-h]chromenes and analogs as activators of caspases and inducers of apoptosis and the use thereof” (Cytovia, Inc., priority 2002, dated 2009).
Where two headings read alike, the source gives them in different places.

Assays:
T-47D = experiment: Caspase cascade activation assay in T-47D cells (N-(Ac-DEVD)-N'-ethoxycarbonyl-R110 fluorogenic substrate); format: cell-based; details: T-47D human breast cancer cells, 24 h incubation; for EC50: sigmoidal dose-response, read-out: Caspase potency EC50; for Caspase activity (Ratio): ratio of net RFU of test compound to control
Protocol: (§1) Human breast cancer cell lines T-47D and ZR-75-1 were grown according to media component mixtures designated by American Type Culture Collection+10% FCS (Invitrogen Corporation), in a 5% CO2-95% humidity incubator at 37° C. T-47D and ZR-75-1 cells were maintained at a cell density between 30 and 80% confluency at a cell density of 0.1 to 0.6×10^6 cells/mL. Cells were harvested at 600×g and resuspended at 0.65×10^6 cells/mL into appropriate media+10% FCS. An aliquot of 45 μl of cells was added to a well of a 96-well microtiter plate containing 5 μl of a 10% DMSO in RPMI-1640 media solution containing about […] of 2-amino-3-cyano-4-(5-methyl-pyridin-3-yl)-7-methyl-4H-pyrrolo[2,3-h]chromene (Example 10) or other test compound (0.016 to 1 μM final). An aliquot of 45 μl of cells was added to a well of a 96-well microtiter plate containing 5 μl of a 10% DMSO in RPMI-1640 media solution without test compound as the control sample. The samples were mixed by agitation and then incubated at 37° C. for 24 h in a 5% CO2-95% humidity incubator. After incubation, the samples were removed from the incubator and 50 μl of a solution containing 20 μM of N-(Ac-DEVD)-N′-ethoxycarbonyl-R110 (SEQ ID No:1) fluorogenic substrate (Cytovia, Inc.; U.S. Pat. No. 6,335,429), 20% sucrose (Sigma), 20 mM DTT (Sigma), 200 mM NaCl (Sigma), 40 mM Na PIPES buffer pH 7.2 (Sigma), and 500 μg/ml lysolecithin (Calbiochem) was added. The samples were mixed by agitation and incubated at room temperature. Using a fluorescent plate reader (Model 1420 Wallac Instruments), an initial reading (T=0) was made approximately 1-2 min after addition of the substrate solution, employing excitation at 485 nm and emission at 530 nm, to determine the background fluorescence of the control sample. After the 3 h incubation, the samples were read for fluorescence as above (T=3 h).
(§2) The Relative Fluorescence Unit values (RFU) were used to calculate the sample readings as follows: RFU(T=3h)−Control RFU(T=0)=Net RFU(T=3h) The activity of caspase cascade activation was determined by the ratio of the net RFU value for 2-amino-3-cyano-4-(5-methyl-pyridin-3-yl)-7-methyl-4H-pyrrolo[2,3-h]chromene or other test compound to that of control samples. The EC50 (nM) was determined by a sigmoidal dose-response calculation (Prism 2.0, GraphPad Software Inc.).

ZR-75-1 = experiment: Caspase cascade activation assay in ZR-75-1 cells (N-(Ac-DEVD)-N'-ethoxycarbonyl-R110 fluorogenic substrate); format: cell-based; details: ZR-75-1 human breast cancer cells, 24 h incubation; for Caspase activity (Ratio): ratio of net RFU of test compound to control; for EC50: sigmoidal dose-response, read-out: Caspase potency EC50
Protocol: as §1, §2

COc1cc(C2C(C#N)=C(N)Oc3c2ccc2c3ccn2C(C)C)cc(Br)c1OC (stereo not drawn) [Example 43, 2-Amino-3-cyano-4-(3-bromo-4,5-dimethoxy-phenyl)-7-isopropyl-4H-pyrrolo[2,3-h]chromene]
EC50 (T-47D; T47D): 58 nM
Caspase activity (Ratio) (T-47D): 2.5
Caspase activity (Ratio) (ZR-75-1): 6.3
EC50 (ZR-75-1): 55 nM

Cn1ccc2c3c(ccc21)C(c1cc(F)cc(F)c1)C(C#N)=C(N)O3 (stereo not drawn) [Example 30, 2-Amino-3-cyano-4-(3,5-difluorophenyl)-7-methyl-4H-pyrrolo[2,3-h]chromene]
EC50 (T-47D; T47D): 7.3 nM
Caspase activity (Ratio) (T-47D): 3.6
Caspase activity (Ratio) (ZR-75-1): 5.6
EC50 (ZR-75-1): 3.4 nM

Cn1ccc2c3c(ccc21)C(c1ccc(Cl)c(F)c1)C(C#N)=C(N)O3 (stereo not drawn) [Example 40H, 2-Amino-3-cyano-4-(3-fluoro-4-chlorophenyl)-7-methyl-4H-pyrrolo[2,3-h]chromene]
EC50 (T-47D; T47D): > 100 nM
Caspase activity (Ratio) (T-47D): 1.3
Caspase activity (Ratio) (ZR-75-1): 6.0
EC50 (ZR-75-1): 56 nM

CCn1ccc2c3c(ccc21)C(c1cc(Br)c(OC)c(OC)c1)C(C#N)=C(N)O3 (stereo not drawn) [Example 4, 2-Amino-4-(3-bromo-4,5-dimethoxyphenyl)-3-cyano-7-ethyl-4H-pyrrolo[2,3-h]chromene]
EC50 (T-47D; T47D): 14 nM
Caspase activity (Ratio) (T-47D): 6.6
Caspase activity (Ratio) (ZR-75-1): 9.2
EC50 (ZR-75-1): 13.1 nM

COc1cc(C2C(C#N)=C(N)Oc3c2ccc2c3ccn2C)cc(Br)c1O (stereo not drawn) [Example 18, 2-Amino-4-(3-bromo-4-hydroxy-5-methoxyphenyl)-3-cyano-7-methyl-4H-pyrrolo[2,3-h]chromene]
EC50 (T-47D; T47D): 6 nM
Caspase activity (Ratio) (T-47D): 4.0
Caspase activity (Ratio) (ZR-75-1): 6.6
EC50 (ZR-75-1): 3.4 nM

Cn1ccc2c3c(ccc21)C(c1ccc(Cl)c(Cl)c1)C(C#N)=C(N)O3 (stereo not drawn) [Example 40E, 2-Amino-3-cyano-4-(3,4-dichlorophenyl)-7-methyl-4H-pyrrolo[2,3-h]chromene]
EC50 (T-47D; T47D): > 100 nM
Caspase activity (Ratio) (T-47D): 1.3
Caspase activity (Ratio) (ZR-75-1): 3.2
EC50 (ZR-75-1): 81 nM

2-Amino-3-cyano-4-(5-methyl-pyridin-3-yl)-7-methyl-4H-imidazo[4,5-h]chromene [Example 14]
Caspase activity (Ratio) (T-47D): 8.0
EC50 (T-47D): 19.8 nM
Caspase activity (Ratio) (ZR-75-1): 9.9
EC50 (ZR-75-1): 10.4 nM

CC(C)n1ccc2c3c(ccc21)C(c1cc(Cl)cc(Cl)c1)C(C#N)=C(N)O3 (stereo not drawn) [Example 42, 2-Amino-3-cyano-4-(3,5-dichloro-phenyl)-7-isopropyl-4H-pyrrolo [2,3-h]chromene]
EC50 (T-47D; T47D): > 100 nM
Caspase activity (Ratio) (T-47D): 1.8
Caspase activity (Ratio) (ZR-75-1): 2.6
EC50 (ZR-75-1): 57 nM

COc1cc(OC)cc(C2C(C#N)=C(N)Oc3c2ccc2c3ccn2CO)c1 (stereo not drawn) [Example 34, 2-Amino-3-cyano-4-(3,5-dimethoxyphenyl)-7-hydroxymethyl-4H-pyrrolo [2,3-h]chromene]
EC50 (T-47D; T47D): 7.1 nM
Caspase activity (Ratio) (T-47D): 3.3
Caspase activity (Ratio) (ZR-75-1): 3.9
EC50 (ZR-75-1): 6.5 nM

Cn1ccc2c3c(ccc21)C(c1cccc([N+](=O)[O-])c1)C(C#N)=C(N)O3 (stereo not drawn) [Example 25, 2-Amino-3-cyano-4-(3-nitrophenyl)-7-methyl-4H-pyrrolo[2,3-h]chromene]
EC50 (T-47D; T47D): 7.2 nM
Caspase activity (Ratio) (T-47D): 3.2
Caspase activity (Ratio) (ZR-75-1): 7.1
EC50 (ZR-75-1): 3.2 nM

Cn1ccc2c3c(ccc21)C(c1ccc(C#N)cc1)C(C#N)=C(N)O3 (stereo not drawn) [Example 40B, 2-Amino-3-cyano-4-(4-cyanophenyl)-7-methyl-4H-pyrrolo[2,3-h]chromene]
EC50 (T-47D; T47D): 55 nM
Caspase activity (Ratio) (T-47D): 4.9
Caspase activity (Ratio) (ZR-75-1): 4.2
EC50 (ZR-75-1): 35 nM

COc1cc(C2C(C#N)=C(N)Oc3c2ccc2c3ccn2CO)cc(OC)c1OC (stereo not drawn) [Example 33, 2-Amino-3-cyano-4-(3,4,5-trimethoxyphenyl)-7-hydroxymethyl-4H-pyrrolo[2,3-h]chromene]
EC50 (T-47D; T47D): 6.2 nM
Caspase activity (Ratio) (T-47D): 4.3
Caspase activity (Ratio) (ZR-75-1): 3.0
EC50 (ZR-75-1): 3.3 nM

Cn1ccc2c3c(ccc21)C(c1cncc(Cl)c1)C(C#N)=C(N)O3 (stereo not drawn) [Example 7, 2-Amino-4-(5-chloro-pyridin-3-yl)-3-cyano-7-methyl-4H-pyrrolo[2,3-h]chromene]
EC50 (T-47D; T47D): 6.7 nM
Caspase activity (Ratio) (T-47D): 5.1
Caspase activity (Ratio) (ZR-75-1): 13.1
EC50 (ZR-75-1): 2.7 nM

Cc1cncc(C2C(C#N)=C(N)Oc3c2ccc2c3ccn2C)n1 (stereo not drawn) [Example 2, 2-Amino-3-cyano-7-methyl-4-(6-methyl-pyrazin-2-yl)-4H-pyrrolo[2,3-h]chromene]
EC50 (T-47D; T47D): 110 nM
Caspase activity (Ratio) (T-47D): 8.2
Caspase activity (Ratio) (ZR-75-1): 4.3
EC50 (ZR-75-1): 41.3 nM

Cn1ccc2c3c(ccc21)C(c1ccc(F)c(C#N)c1)C(C#N)=C(N)O3 (stereo not drawn) [Example 40J, 2-Amino-3-cyano-4-(3-cyano-4-fluorophenyl)-7-methyl-4H-pyrrolo[2,3-h]chromene]
EC50 (T-47D; T47D): 29 nM
Caspase activity (Ratio) (T-47D): 3.6
Caspase activity (Ratio) (ZR-75-1): 5.8
EC50 (ZR-75-1): 14 nM

COc1cc(C2C(C#N)=C(N)Oc3c2ccc2c3ccn2CO)cc(Br)c1OC (stereo not drawn) [Example 17, 2-Amino-4-(3-bromo-4,5-dimethoxyphenyl)-3-cyano-7-hydroxymethyl-4H-pyrrolo[2,3-h]chromene]
EC50 (T-47D; T47D): 2.1 nM
Caspase activity (Ratio) (T-47D): 7.2
Caspase activity (Ratio) (ZR-75-1): 3.3
EC50 (ZR-75-1): 1.6 nM

COc1cc(C2C(C#N)=C(N)Oc3c2ccc2c3c(C)cn2C)cc(Br)c1OC (stereo not drawn) [Example 40F, 2-Amino-3-cyano-4-(3-bromo-4,5-dimethoxyphenyl)-7,9-dimethyl-4H-pyrrolo[2,3-h]chromene]
EC50 (T-47D; T47D): 42 nM
Caspase activity (Ratio) (T-47D): 2.6
Caspase activity (Ratio) (ZR-75-1): 3.9
EC50 (ZR-75-1): 26 nM

Cn1ccc2c3c(ccc21)C(c1cccc(Cl)c1)C(C#N)=C(N)O3 (stereo not drawn) [Example 40C, 2-Amino-3-cyano-4-(3-chlorophenyl)-7-methyl-4H-pyrrolo[2,3-h]chromene]
EC50 (T-47D; T47D): 14 nM
Caspase activity (Ratio) (T-47D): 4.0
Caspase activity (Ratio) (ZR-75-1): 2.7
EC50 (ZR-75-1): 7.9 nM

Cc1cncc(C2C(C#N)=C(N)Oc3c2ccc2c3ccn2CO)c1 (stereo not drawn) [Example 20, 2-Amino-3-cyano-4-(5-methyl-pyridin-3-yl)-7-hydroxymethyl-4H-pyrrolo[2,3-h]chromene]
EC50 (T-47D; T47D): 3.7 nM
Caspase activity (Ratio) (T-47D): 4.7
Caspase activity (Ratio) (ZR-75-1): 6.3
EC50 (ZR-75-1): 2.4 nM

2-Amino-4-(3-bromo-4,5-dimethoxyphenyl)-3-cyano-7-(2-diethyl-amino-ethyl)-4H-pyrrolo[2,3-h]chromene [Example 6]
Caspase activity (Ratio) (T-47D): 3.3
EC50 (T-47D): 413 nM
Caspase activity (Ratio) (ZR-75-1): 7.0
EC50 (ZR-75-1): 259 nM

Cn1ccc2c3c(ccc21)C(c1ccc([N+](=O)[O-])s1)C(C#N)=C(N)O3 (stereo not drawn) [Example 37, 2-Amino-4-(5-nitro-thiophene-2-yl)-3-cyano-7-methyl-4H-pyrrolo[2,3-h]chromene]
EC50 (T-47D; T47D): > 100 nM
Caspase activity (Ratio) (T-47D): 2.0
Caspase activity (Ratio) (ZR-75-1): 6.7
EC50 (ZR-75-1): 36 nM

Cn1ccc2c3c(ccc21)C(c1cncc(Br)c1)C(C#N)=C(N)O3 (stereo not drawn) [Example 11, 2-Amino-4-(5-bromo-pyridin-3-yl)-3-cyano-7-methyl-4H-pyrrolo [2,3-h]chromene]
EC50 (T-47D; T47D): 2.9 nM
Caspase activity (Ratio) (T-47D): 4.6
Caspase activity (Ratio) (ZR-75-1): 4.1
EC50 (ZR-75-1): 1.1 nM

Cn1ccc2c3c(ccc21)C(c1c[nH]c2ccccc12)C(C#N)=C(N)O3 (stereo not drawn) [Example 8, 2-Amino-3-cyano-4-(indol-3-yl)-7-methyl-4H-pyrrolo[2,3-h]chromene]
EC50 (T-47D; T47D): 58.7 nM
Caspase activity (Ratio) (T-47D): 3.8
Caspase activity (Ratio) (ZR-75-1): 8.9
EC50 (ZR-75-1): 55 nM

Cn1ccc2c3c(ccc21)C(c1cnc(O)c(Cl)c1)C(C#N)=C(N)O3 (stereo not drawn) [Example 9, 2-Amino-4-(5-chloro-6-hydroxy-pyridin-3-yl)-3-cyano-7-methyl-4H-pyrrolo[2,3-h]chromene]
EC50 (T-47D; T47D): 14.2 nM
Caspase activity (Ratio) (T-47D): 8.3
Caspase activity (Ratio) (ZR-75-1): 7.8
EC50 (ZR-75-1): 6.2 nM
